Measurements reported in the NIST ThermoML archive (doi:10.1016/j.fluid.2015.07.049).
± gives the expanded uncertainty stated by the source.

Details: 313.15 K; Liquid

CCCCCO [pentan-1-ol]
vapor or sublimation pressure: 0.898 ± 0.018 kPa

CCCCCCC [heptane]
vapor or sublimation pressure: 12.31 ± 0.055 kPa

CC(C)CC(C)(C)C [2,2,4-trimethylpentane]
vapor or sublimation pressure: 12.94 ± 0.057 kPa
